The source of these data is patent publication US20150299125A1, “PRODRUG BIPYRIDYLAMINOPYRIDINES AS SYK INHIBITORS” (MERCK SHARP & DOHME CORP., priority 2012, published 2015).

Values after ≈ are worked out from the molar mass of the structure shown. Read-outs that look alike come from different tables or passages of the source.

A short description of one series: Blood stability assay. It is filed as in vitro ADME. To be noted: whole blood; human blood, 37° C. The procedure:
The likely stability of prodrugs in the blood can be estimated by incubating a prodrug with blood. A prodrug stock solution was prepared at 10 mM in DMSO and working solutions (100 μM) containing the prodrug were prepared by diluting a suitable amount of the stock solution with acetonitrile/water (50/50). 5 μL of the working solution were added to 495 μL of pre-warmed blood (at 37° C.). After vortexing and mixing, 50 μL of the spiked blood sample were taken for the 0 time point and transferred to another vial containing 200 μL of quenching solution (labetalol, alprazolam and diclofenac in 100% acetonitrile) ensuring that the vial is lidded to prevent evaporation and kept on ice. While keeping the spiked blood sample at 37° C. at the following timepoints (0.25, 0.5, 1, 2 and 3 h) 5 additional aliquots (50 μL) were sampled and mixed with the quenching solution. At the end of the experiment the quenched samples were vortexed for 2 minutes and centrifuged for 10 minutes at 4000 rpm. The supernatant (100 μL) was then transferred and collected into a new 96-well plate and injected into the LC-MS/MS for analysis. For each test compound, the area ratios at each time point to the 0 hour area ratio were compared and converted to a percentage remaining. The percentage remaining were then plotted against time (h) and half life generated using the following equation t½=0.693/kel. Where kel is the elimination rate constant which is determined from the concentration versus time curve by linear regression at the terminal phase of the semi-logarithmic plot.

Series [1] is described as follows: Conversion of prodrug to parent in intestine homogenate. It is filed as in vitro ADME. To be noted: prodrug 1 μM, intestine S9 1 mg protein/mL, 37° C., pH 7.4, 2 h. The procedure:
Conversion of Prodrug to Parent in Intestine Homogenate:
(§1) The likely stability of prodrugs in the intestine can be estimated by incubating a prodrug with intestine homogenate. Incubations of prodrugs (1 μM) with intestine S9 (1 mg protein/mL) were carried out at 37° C. in a phosphate buffer, pH 7.4. Control incubations contained BSA (1.1 mg/mL) instead of intestine S9 microsomes. Aliquots were removed at 0, 5, 15, 30, 60 and 120 min, treated with 4 volumes of acetonitrile containing 2% formic acid and an internal standard, and centrifuged. The supernatants were analyzed by LC-MS/MS for prodrug disappearance and appearance of active drug. The half-life of the prodrug was calculated from the % prodrug remaining at different time points calculated from on the peak area ratio relative to t=0. The amount of active drug generated at the different time points was determined using a standard curve.

Series [2] in a line: Solubility in biorelevant fasted state simulated intestinal fluid (FaSSIF). It is filed as physicochemical. To be noted: 25 °C, fassif, kinetic from dmso stock. The method, boiled down: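 Compound from 10 mM DMSO stock diluted into FaSSIF (maximum solubility approximately 200 μM), equilibrated, then filtered by centrifugation through a 0.45 μm polypropylene membrane. Filtrate and a 100 μM standard analysed by HPLC/DAD; solubility = (sample peak area/standard peak area) × standard concentration.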

Series [3] deals with T1, recombinant human GST-Syk (Homo sapiens, UniProt P43405).
T1 construct: purchased Carna Biosciences 08-176
In words: Homogeneous Time-Resolved Fluorescence (HTRF) assay for the recombinant human Syk enzyme. To be noted: recombinant human GST-Syk 5 pM, ATP 25 μM, read-out: IC50. The series is classed as biochemical. An outline of the steps: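 HTRF read-out, taken 30 min after adding 2 nM europium anti-pTyr antibody plus 70 nM streptavidin-APC in 40 mM EDTA/Tris pH 7.5, detects peptide phosphorylated by GST-tagged human Syk during a 45-min room-temperature reaction.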

Series [4] can be described thus: Conversion of prodrug to parent in liver homogenate. The series is classed as in vitro ADME. To be noted: prodrug 1 μM, liver S9 1 mg protein/mL, 37° C., pH 7.4, 2 h. Here is the method: Conversion of Prodrug to Parent in Liver Homogenate:
as §1, with “liver” for “intestine”

The nature of series [5]: Conversion of prodrug to parent in in vitro biorelevant gastrointestinal tract media. It is filed as in vitro ADME. To be noted: 37° C.; for Conversion in SGF, time: simulated gastric fluid. The procedure: Conversion of Prodrug to Parent in In Vitro Biorelevant Gastrointestinal Tract Media: The likely stability of prodrugs in the gastrointestinal tract can be estimated by incubating a prodrug in simulated gastric and intestinal fluids; compounds were measured for stability in simulated gastric fluid (SGF), fasted state simulated intestinal fluid (FaSSIF), and fasted state simulated intestinal fluid plus pancreatin (FaSSIF+pancreatin). Prodrug stock solutions were made by diluting 2 mg of compound in 200 μL DMSO. A 10 mg/mL Pancreatin in FaSSIF stock solution was made by dissolving 10 mg Pancreatin in 1 mL FaSSIF. Samples were prepared by diluting 10 μL of compound stock solution into 990 μL of biorelevant media (990 μL SGF, 990 μL FaSSIF, or 940 μL FaSSIF plus 50 μL Pancreatin stock) in a 2 mL HPLC vial and vortexing the mixture for a few seconds. The samples were incubated at 37° C. and aliquots were removed for up to 24 hours and injected directly on an HPLC to determine the conversion of prodrug to active drug. In the case of compound precipitation upon sample preparation, an individual sample was prepared for each desired time point and the entire sample was diluted with a known volume of acetonitrile/water (50/50) to ensure compound dissolution before HPLC analysis.

The conditions of series [6]: phase II clinical trial for allergic rhinitis; cited from earlier work.
The conditions of series [7]: dosed intranasally, phase I/II study, allergic rhinitis; cited from earlier work.

With `Cc1cc(Nc2cc(C(F)F)ccn2)nc(-c2ccc([C@](C)(O)[C@H]3CC[C@H](C(=O)OCn4cc[n+](C)c4)CC3)nc2)c1` [Example 6-1, 1-{[({Trans-4-[(1R)-1-(6-{[4-(Difluoromethyl)pyridin-2-yl]amino}-4-methyl-2,3′-bipyridin-6′-yl)-1-hydroxyethyl]cyclohexyl}carbonyl)oxy]methyl}-3-methyl-1H-imidazol-3-ium], the half-life (in general, the time needed for the level to fall by half in the phase considered) at 1 μM in “Blood stability assay” worked out at 24 min. In addition, the “Prodrug concentration at 2 h” value in series [1] worked out at 0.844 µM; in series [4], 0.622 µM. For the same compound, the solubility (usually how much of the substance goes into solution per volume) in series [2] (Solubility) is 140 µM. The IC50 (usually the concentration that inhibits the measured activity by half) in series [3] stood at 0.8 nM.
On to `CCOCCOCCOC(=O)OCOC(=O)[C@H]1CC[C@H]([C@@](C)(O)c2ccc(-c3cc(C)cc(Nc4cc(C(F)F)ccn4)n3)cn2)CC1` [Example 2-2, 3-oxo-2,4,7,10-tetraoxadodec-1-yl trans-4-[(1R)-1-(6-{[4-(difluoromethyl)pyridin-2-yl]amino}-4-methyl-2,3′-bipyridin-6′-yl)-1-hydroxyethyl]cyclo hexanecarboxylate], for which, in the series “Blood stability assay”, the half-life at 1 μM was 7 min. Moreover, the “Prodrug concentration at 2 h” value in series [1] stood at 0 µM. The IC50 in series [3] is 174 nM. In series [5] (3 h), the “Conversion in FaSSIF + Pancreatin, time” value is recorded as 100%, 3 h. In series [5] (5 h), the “Conversion in FaSSIF, time” value is 0%, 5 h and the “Conversion in SGF, time” value is 0%, 5 h. Moreover, the “Prodrug concentration at 2 h” value in series [4] is 0 µM.
As for `Cc1cc(Nc2cc(C(F)F)ccn2)nc(-c2ccc([C@](C)(O)[C@H]3CC[C@H](C(=O)OCCS(C)(=O)=O)CC3)nc2)c1` [Example 1-8, 2-(methylsulfonyl)ethyl trans-4-[(1R)-1-(6-{[4-(difluoromethyl)pyridin-2-yl]amino}-4-methyl-2,3′-bipyridin-6′-yl)-1-hydroxyethyl] cyclohexanecarboxylate], in “Blood stability assay”, the half-life at 1 μM turned out to be 22 min. For the same compound, the IC50 in series [3] was 4 nM.
`COCCOCCOCC(=O)OCOC(=O)[C@H]1CC[C@H]([C@@](C)(O)c2ccc(-c3cc(C)cc(Nc4cc(C(F)F)ccn4)n3)cn2)CC1` [Example 3-29, 3-oxo-2,5,8,11-tetraoxadodec-1-yl trans-4-[(1R)-1-(6-{[4-(difluoromethyl)pyridin-2-yl]amino}-4-methyl-2,3′-bipyridin-6′-yl)-1-hydroxyethyl]cyclohexane carboxylate] gave a half-life at 1 μM in “Blood stability assay” of 29 min. The compound further returned a solubility in series [2] (Solubility) of 41 µM (≈ 27.6 µg/mL). Also, the 50% inhibitory concentration (IC50) in series [3] came to 1.2 nM.
For the compound `Cc1cc(Nc2cc(C(F)F)ccn2)nc(-c2ccc([C@](C)(O)[C@H]3CC[C@H](C(=O)OC[N+]4(C)CCOCC4)CC3)nc2)c1.[I-]` [Example 5-1, 4-{[({trans-4-[(1R)-1-(6-{[4-(Difluoromethyl)pyridin-2-yl]amino}-4-methyl-2,3′-bipyridin-6′-yl)-1-hydroxyethyl]cyclohexyl}carbonyl)oxy]methyl}-4-methylmorpholin-4-ium], in the series “Blood stability assay”, the half-life at 1 μM came to 15 min. Also, the “Prodrug concentration at 2 h” value in series [1] was 0.321 µM; in series [4], 0.314 µM. Also, the solubility in series [2] (FaSSIF (fasted state simulated intestinal fluid), FaSSIF, equilibrated overnight at 25° C., maximum solubility approximately 200 μM, read-out: Solubility) was 200 µM. Besides, the half-maximal inhibitory concentration (IC50) in series [3] is 3.6 nM. Also, the “Conversion in FaSSIF + Pancreatin, time” value in series [5] (3 h) was 45%, 3 h. Also, the “Conversion in FaSSIF, time” value in series [5] (3 h) is listed as 12%, 3 h. Also, the “Conversion in SGF, time” value in series [5] (5 h) is on record as 0%, 5 h.
`CCOCCOCCOC(=O)OC(C)OC(=O)[C@H]1CC[C@H]([C@@](C)(O)c2ccc(-c3cc(C)cc(Nc4cc(C(F)F)ccn4)n3)cn2)CC1` (stereo partly drawn) [Example 2-14, 1-methyl-3-oxo-2,4,7,10-tetraoxadodec-1-yl trans-4-[(1R)-1-(6-{[4-(difluoromethyl)pyridin-2-yl]amino}-4-methyl-2,3′-bipyridin-6′-yl)-1-hydroxyethyl]cyclo hexanecarboxylate] showed a half-life at 1 μM in “Blood stability assay” of 199 min. Besides, the IC50 in series [3] is 30.4 nM.
As for `Oc1cccc(Nc2ncc(F)c(Nc3cccc(O)c3)n2)c1` [Example R112], the efficacy versus placebo entry in series [6] is recorded as “lack of efficacy versus placebo”. In series [7], the PGD2 entry was “statistically significant decrease” and the clinical safety result is given as “safe across a range of indicators”.
In “Blood stability assay”, `Cc1cc(Nc2cc(C(F)F)ccn2)nc(-c2ccc([C@](C)(O)[C@H]3CC[C@H](C(=O)OCOC(=O)CC(C)(C)O)CC3)nc2)c1` [Example 3-4, [(3-hydroxy-3-methylbutanoyl)oxy] methyl trans-4-[(1R)-1-(6-{[4-(difluoromethyl)pyridin-2-yl]amino}-4-methyl-2,3′-bipyridin-6′-yl)-1-hydroxyethyl]cyclohexane carboxylate] gave a half-life at 1 μM of 14 min. The same compound had a solubility in series [2] (Solubility) of 59 µM (≈ 36.1 µg/mL). Besides, the 50% inhibitory concentration (IC50) in series [3] worked out at 1.8 nM.
